Assay results reported in PubChem BioAssay AID248 (DTP/NCI, 2004).
Where “and” joins values, the source holds several entries; their conditions need not be identical. Identical values can stand only once. Toxic doses and inconclusive results are not listed.

System: L1210 leukemia ip in BDF1 mice, survival T/C
Test: NCI In Vivo Anticancer Drug Screen. Data for tumor model L1210 Leukemia (intraperitoneal) in B6D2F1 (BDF1) mice
Details: endpoint: mean survival time, higher = longer survival
Outline: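 Transplantable tumor model; survival measured in treated vs vehicle control mice. Value = treated/control.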

Which results are given for `O=c1[nH]c(=O)n([C@H]2CCCO2)cc1F`?
T/C (dose: 2.5 mg/kg/injection, schedule: Q01DX009 (ip), vehicle: saline): 97 % of control; T/C (dose: 5.0 mg/kg/injection, schedule: Q01DX009 (ip), vehicle: saline): 98 % of control; T/C (dose: 5.0 mg/kg/injection, schedule: Q01DX009 (oral), vehicle: saline): 102 % of control; T/C (dose: 10.0 mg/kg/injection, schedule: Q01DX009 (ip), vehicle: saline): 100 % of control; T/C (dose: 10.0 mg/kg/injection, schedule: Q01DX009 (oral), vehicle: saline): 103 % of control; T/C (dose: 20.0 mg/kg/injection, schedule: Q01DX009 (ip), vehicle: saline): 103 % of control; T/C (dose: 20.0 mg/kg/injection, schedule: Q01DX009 (oral), vehicle: saline): 112 % of control; T/C (dose: 38.9 mg/kg/injection, schedule: Q01DX009 (ip), vehicle: saline): 97 % of control; T/C (dose: 39.0 mg/kg/injection, schedule: Q01DX009 (ip), vehicle: Klucel (hydroxypropylcellulose) (HPC)): 111 % of control; T/C (dose: 40.0 mg/kg/injection, schedule: Q01DX009 (ip), vehicle: saline): 101 % of control; T/C (dose: 40.0 mg/kg/injection, schedule: Q01DX009 (oral), vehicle: saline): 107 % of control; T/C (dose: 64.8 mg/kg/injection, schedule: Q01DX009 (ip), vehicle: saline): 107 % of control; T/C (dose: 65.0 mg/kg/injection, schedule: Q01DX009 (ip), vehicle: Klucel (hydroxypropylcellulose) (HPC)): 123 % of control; T/C (dose: 75.0 mg/kg/injection, schedule: Q04DX003 (ip), vehicle: other): 95 % of control; T/C (dose: 80.0 mg/kg/injection, schedule: Q01DX009 (ip), vehicle: saline): 114 % of control; T/C (dose: 80.0 mg/kg/injection, schedule: Q01DX009 (oral), vehicle: saline): 118 % of control; T/C (dose: 105.0 mg/kg/injection, schedule: Q01DX012 (sc), vehicle: clinical formulation): 159 % of control; T/C (dose: 108.0 mg/kg/injection, schedule: Q01DX009 (ip), vehicle: Klucel (hydroxypropylcellulose) (HPC)): 159 % of control; T/C (dose: 108.0 mg/kg/injection, schedule: Q04DX003 (ip), vehicle: Klucel (hydroxypropylcellulose) (HPC)): 113 % of control; T/C (dose: 150.0 mg/kg/injection, schedule: Q04DX003 (ip), vehicle: other): 111 % of control; T/C (dose: 160.0 mg/kg/injection, schedule: Q01DX009 (ip), vehicle: saline): 150 % of control; T/C (dose: 160.0 mg/kg/injection, schedule: Q01DX009 (oral), vehicle: saline): 113 % of control; T/C (dose: 164.0 mg/kg/injection, schedule: Q01DX005 (sc), vehicle: clinical formulation): 159 % of control; T/C (dose: 164.0 mg/kg/injection, schedule: Q01DX012 (sc), vehicle: clinical formulation): 121 % of control; T/C (dose: 168.0 mg/kg/injection, schedule: Q01DX001 (ip), vehicle: other): 99 % of control and 107 % of control; T/C (dose: 168.0 mg/kg/injection, schedule: Q01DX001 (sc), vehicle: other): 107 % of control and 116 % of control; T/C (dose: 205.0 mg/kg/injection, schedule: Q01DX005 (sc), vehicle: clinical formulation): 97 % of control; T/C (dose: 205.0 mg/kg/injection, schedule: Q01DX012 (sc), vehicle: clinical formulation): 106 % of control; T/C (dose: 240.0 mg/kg/injection, schedule: Q01DX001 (ip), vehicle: other): 116 % of control and 121 % of control; T/C (dose: 240.0 mg/kg/injection, schedule: Q01DX001 (sc), vehicle: other): 112 % of control and 117 % of control; T/C (dose: 256.0 mg/kg/injection, schedule: Q01DX002 (sc), vehicle: clinical formulation): 111 % of control; T/C (dose: 256.0 mg/kg/injection, schedule: Q01DX005 (sc), vehicle: clinical formulation): 102 % of control; T/C (dose: 300.0 mg/kg/injection, schedule: Q01DX001 (ip), vehicle: Klucel (hydroxypropylcellulose) (HPC)): 98 % of control; T/C (dose: 300.0 mg/kg/injection, schedule: Q01DX009 (ip), vehicle: Klucel (hydroxypropylcellulose) (HPC)): 114 % of control; T/C (dose: 300.0 mg/kg/injection, schedule: Q01DX009 (ip), vehicle: saline): 102 % of control; T/C (dose: 300.0 mg/kg/injection, schedule: Q04DX003 (ip), vehicle: Klucel (hydroxypropylcellulose) (HPC)): 152 % of control; T/C (dose: 300.0 mg/kg/injection, schedule: Q04DX003 (ip), vehicle: other): 161 % of control; T/C (dose: 320.0 mg/kg/injection, schedule: Q01DX009 (ip), vehicle: saline): 160 % of control; T/C (dose: 320.0 mg/kg/injection, schedule: Q01DX009 (oral), vehicle: saline): 98 % of control; T/C (dose: 363.0 mg/kg/injection, schedule: Q01DX001 (ip), vehicle: other): 121 % of control; T/C (dose: 400.0 mg/kg/injection, schedule: Q01DX001 (sc), vehicle: clinical formulation): 121 % of control; T/C (dose: 490.0 mg/kg/injection, schedule: Q01DX001 (ip), vehicle: other): 121 % of control; T/C (dose: 500.0 mg/kg/injection, schedule: Q01DX001 (ip), vehicle: Klucel (hydroxypropylcellulose) (HPC)): 117 % of control; T/C (dose: 500.0 mg/kg/injection, schedule: Q01DX001 (sc), vehicle: clinical formulation): 123 % of control; T/C (dose: 500.0 mg/kg/injection, schedule: Q01DX002 (sc), vehicle: clinical formulation): 110 % of control
